{
  "source": "patent US9447048B2",
  "about": "“Processes for the preparation of pesticidal compounds” (Dow AgroSciences LLC, priority 2013, dated 2016)",
  "key": {"[1]": {"tested_on": "Green Peach Aphid (Myzus persicae) (MYZUPE)", "experiment": "Bioassay on Green Peach Aphid (GPA), foliar spray on cabbage seedlings", "type": "in vivo", "settings": "200 ppm spray on cabbage leaves, graded after three days, live aphids, Abbott's correction", "protocol": "Several molecules disclosed herein were tested against GPA using procedures described below.\nCabbage seedling grown in 3-in pots, with 2-3 small (3-5 cm) true leaves, were used as test substrate. The seedlings were infested with […] (wingless adult and nymph stages) one day prior to chemical application. Four pots with individual seedlings were used for each treatment. Test compounds (2 mg) were dissolved in 2 mL of acetone/MeOH (1:1) solvent, forming stock solutions of 1000 ppm test compound. The stock solutions were diluted 5× with 0.025% Tween 20 in water to obtain the solution at 200 ppm test compound. A hand-held aspirator-type sprayer was used for spraying a solution to both sides of the cabbage leaves until runoff. Reference plants (solvent check) were sprayed with the diluent only containing 20% by volume acetone/MeOH (1:1) solvent. Treated plants were held in a holding room for three days at approximately 25° C. and ambient relative humidity (RH) prior to grading. Evaluation was conducted by counting the number of live aphids per plant under a microscope. Percent Control was measured by using Abbott's correction formula (W. S. Abbott, “A Method of Computing the Effectiveness of an Insecticide” J. Econ. Entomol 18 (1925), pp. 265-267) as follows. Corrected % Control=100*(X−Y)/X • where • X=No. of live aphids on solvent check plants and • Y=No. of live aphids on treated plants\nThe results are indicated in the table entitled “Table 1: GPA (MYZUPE) and sweetpotato whitefly-crawler (BEMITA) Rating Table”."}, "[2]": {"tested_on": "Sweetpotato Whitefly Crawler (Bemisia tabaci) (BEMITA)", "experiment": "Bioassay on Sweetpotato Whitefly Crawler, foliar spray on cotton plants", "type": "in vivo", "settings": "200 ppm spray on cotton leaf, graded after 8-9 days, live nymphs, Abbott's correction", "protocol": "Cotton plants grown in 3-inch pots, with 1 small (3-5 cm) true leaf, were used at test substrate. The plants were placed in a room with whitely adults. Adults were allowed to deposit eggs for 2-3 days. After a 2-3 day egg-laying period, plants were taken from the adult whitefly room. Adults were blown off leaves using a hand-held Devilbliss sprayer (23 psi). Plants with egg infestation (100-300 eggs per plant) were placed in a holding room for 5-6 days at 82° F. and 50% RH for egg hatch and crawler stage to develop. Four cotton plants were used for each treatment. Compounds (2 mg) were dissolved in 1 mL of acetone solvent, forming stock solutions of 2000 ppm. The stock solutions were diluted 10× with 0.025% Tween 20 in water to obtain a test solution at 200 ppm. A hand-held Devilbliss sprayer was used for spraying a solution to both sides of cotton leaf until runoff. Reference plants (solvent check) were sprayed with the diluent only. Treated plants were held in a holding room for 8-9 days at approximately 82° F. and 50% RH prior to grading. Evaluation was conducted by counting the number of live nymphs per plant under a microscope."}},
  "data": [
    {"compound": "Cl.Nc1c[nH]nc1Cl", "note": "[Compound 1a, 3-chloro-1H-pyrazol-4-amine Hydrochloride]", "values": [
      {"measurement": "MYZUPE rating (% Control of Mortality)", "setting": "[1]", "result": "B (More than 0-Less than 80)"},
      {"measurement": "BEMITA rating (% Control of Mortality)", "setting": "[2]", "result": "B (More than 0-Less than 80)"}
    ]},
    {"compound": "O=C(CCSCCC(F)(F)F)Nc1c[nH]nc1Cl", "note": "[Compound 2.3, N-(3-chloro-1H-pyraxol-4-yl)-3-((3,3,3,trifluoropropyl)thio)propanamide]", "values": [
      {"measurement": "MYZUPE rating (% Control of Mortality)", "setting": "[1]", "result": "B (More than 0-Less than 80)"},
      {"measurement": "BEMITA rating (% Control of Mortality)", "setting": "[2]", "result": "B (More than 0-Less than 80)"}
    ]},
    {"compound": "O=C(CCSCCC(F)(F)F)Nc1cn(-c2cccnc2)nc1Cl", "note": "[Compound 5.3, N-(3-chloro-1-(pyridin-3-yl)-1H-pyrazol-4-yl)-3-((3,3,3-trifluoropropyl)thio)propanamide]", "values": [
      {"measurement": "MYZUPE rating (% Control of Mortality)", "setting": "[1]", "result": "A (80-100)"},
      {"measurement": "BEMITA rating (% Control of Mortality)", "setting": "[2]", "result": "B (More than 0-Less than 80)"}
    ]},
    {"compound": "CCN(C(=O)CCSCCC(F)(F)F)c1cn(-c2cccnc2)nc1Cl", "note": "[Compound 6.3, N-(3-chloro-1-(pyridin-3-yl)-1H-pyrazol-4-yl)-N-ethyl-3-((3,3,3-trifluoropropyl)thio)propanamide]", "values": [
      {"measurement": "MYZUPE rating (% Control of Mortality)", "setting": "[1]", "result": "A (80-100)"},
      {"measurement": "BEMITA rating (% Control of Mortality)", "setting": "[2]", "result": "A (80-100)"}
    ]},
    {"compound": "CCN(C(=O)CC[S+]([O-])CCC(F)(F)F)c1cn(-c2cccnc2)nc1Cl", "note": "(stereo not shown) [Compound 7.3, N-(3-chloro-1-(pyridin-3-yl)-1H-pyrazol-4-yl)-N-ethyl-3-((3,3,3-trifluoropropyl)sulfoxo)propanamide]", "values": [
      {"measurement": "MYZUPE rating (% Control of Mortality)", "setting": "[1]", "result": "A (80-100)"},
      {"measurement": "BEMITA rating (% Control of Mortality)", "setting": "[2]", "result": "A (80-100)"}
    ]}
  ]
}
